We go through 5 compounds from article PMC12394552, “Multi-biological activity evaluation of Sn(П), Zn(П) and Fe(П) complexes based on thiocarbohydrazide schiff bases: synthesis, spectroscopic investigations and fluorescence studies” (Scientific Reports, 2025).

In data set [1] the test system is Periodontal ligament fibroblasts (PDL). Briefly: SRB selective cytotoxicity in normal fibroblasts. It counts as cell-based. The protocol: (§1) All malignancy cell lines were cultured in high glucose DMEM (Bio Whittaker, Verviers, Belgium) containing 10% FBS, 4-(2-hydroxyethyl)-1-piperazineethanesulfonic acid (HEPES) Buffer (10 mM), L-glutamine (2 mM), gentamicin (50 µg/mL), penicillin (100 U/mL), and streptomycin sulfate ([…]) from Sigma (St. Luis, MO, USA) whereas Sulforhodamine B was from Santa Cruz Biotechnology (Inc. Texas, USA). Surviving cancer cell lines provide numerous advantages; they provide a pure and continuous supply of cells, thus overcoming any ethical barriers concerning human tissue usage, and are cost-effective. For cytotoxicity screening, adherent monolayers of all procured malignancies’ cell lines were examined. Periodontal ligament fibroblasts (PDL) were used to determine selective cytotoxicity.

In data set [2] the test system is A549 lung malignancy. Briefly: SRB antiproliferative assay. It counts as cell-based, human. The settings on record: read-out: Cytotoxicity (as of %Control) IC50 value, A549 lung malignancy. The procedure: as §1
The subject of data set [3] is SW480 colorectal cancer cell line. Nature of the data set: SRB antiproliferative assay. It counts as cell-based, human. Particulars: read-out: Cytotoxicity (as of %control) IC50 value, SW480. The procedure:
as §1

Data set [4] deals with BT-549 invasive mammary malignancy. Briefly: SRB antiproliferative assay. In kind it is cell-based, human. The settings on record: read-out: Cytotoxicity (as of %control) IC50 value, BT-549 invasive mammary malignancy. The protocol: as §1
Data set [5] deals with MDA-MB-231 invasive mammary malignancy. Nature of the data set: SRB antiproliferative assay. In kind it is cell-based, human. The settings on record: read-out: Cytotoxicity (as of %control) IC50 value, MDA-MB-231 invasive mammary malignancy. The procedure:
as §1

Data set [6] relates to Hela cervix malignancy. Nature of the data set: SRB antiproliferative assay. It counts as cell-based, human. The settings on record: read-out: Cytotoxicity (as of %Control) IC50 value, Hela cervix malignancy. The protocol: as §1
The test system of data set [7] is MDA-MB-453 invasive mammary malignancy. Briefly: SRB antiproliferative assay. It counts as cell-based, human. Particulars: read-out: Cytotoxicity (as of %control) IC50 value, MDA-MB-453 invasive mammary malignancy. The protocol: as §1
The test system of data set [8] is PC3 prostate malignancy. Nature of the data set: SRB antiproliferative assay. In kind it is cell-based, human. Particulars: read-out: Cytotoxicity (as of %Control) IC50 value, PC3 prostate malignancy. The procedure:
as §1

Data set [9] deals with PANC1 pancreatic cell line. Nature of the data set: SRB antiproliferative assay. It counts as cell-based, human. Particulars: read-out: Cytotoxicity (as of %control) IC50 value, PANC1. The procedure: as §1
Data set [10] has as its system T47D mammary malignancy. Nature of the data set: SRB antiproliferative assay. In kind it is cell-based, human. The settings on record: read-out: Cytotoxicity (as of %control) IC50 value, T47D mammary malignancy. The procedure:
as §1

The subject of data set [11] is MCF7 mammary malignancy. Briefly: SRB antiproliferative assay. In kind it is cell-based, human. Particulars: read-out: Cytotoxicity (as of %control) IC50 value, MCF7 mammary malignancy. The protocol:
as §1

For data set [12], the system named is Staphylococcus aureus ATCC 6538. Nature of the data set: MIC determination, broth microdilution (EUCAST adapted). Particulars: ATCC6538, read-out: S. aureus MIC value. It counts as cell-based. The procedure:
(§2) The compounds were tested against Gram-positive bacteria (Staphylococcus aureus ATCC 6538), Gram-negative bacteria (Escherichia coli ATCC 8739) and yeast (Candida albicansATCC10231). […] For bacterial strains, the EUCAST (2025) method was adapted. A few colonies of each bacterial culture previously grown on Mueller-Hinton agar for 24–48 h were suspended in normal saline and adjusted to 0.5 McFarland (1.5 × 10^8 CFU/mL). A 1/10 dilution was prepared in Mueller-Hinton broth (MHB) for the inoculation. In the wells of a 96-well flat-bottom microtiter plate, double serial dilutions of each compound were prepared in MHB. Each well was inoculated with the bacteria to achieve ca. 5 × 10^5 CFU/mL, and the plates were incubated at 37 °C overnight. Positive control (bacteria in culture medium only) and negative control (culture medium) were prepared. Each compound was tested in duplicate. After incubation, the plates were inspected visually for growth inhibition. To test the antimicrobial activity of DMSO, double serial dilutions of DMSO in broth medium were prepared and processed as the samples, but without the addition of the compounds. The antibacterial drug ciprofloxacin was used as a reference for comparison.
(§3) For Candida albicans, the same procedure applied to bacteria was used, except after inoculation, the plates were incubated at 35 °C for 24 h, and after incubation, the absorbance was measured at 530 nm using a plate reader. […] The absorbance of the wells was corrected by subtracting the absorbance of the blank. […] The antifungal drug fluconazole was used as a reference for comparison.

The test system of data set [13] is Escherichia coli ATCC 8739. The data set is described as above. Particulars: ATCC8739, read-out: E. coli MIC value. In kind it is cell-based. The protocol: as §2, §3
Data set [14] deals with Candida albicans ATCC10231. Briefly: MIC determination, broth microdilution, absorbance 530 nm. It counts as cell-based. Particulars: ATCC10231, 24 h, read-out: C. albicans MIC value at 50% inhibition. The protocol: as §2, §3
Data set [15] has as its system HT29 colorectal cancer cell line. Briefly: SRB antiproliferative assay. It counts as cell-based. The settings on record: Homo sapiens, HT-29, 72 h; read-out: Cytotoxicity (as of %control) IC50 value, HT29. The protocol:
as §1

The test system of data set [16] is SW620 colorectal cancer cell line. Briefly: SRB antiproliferative assay. It counts as cell-based. Particulars: Homo sapiens, SW-620, 72 h, read-out: Cytotoxicity (as of %control) IC50 value, SW620. The protocol:
as §1

In data set [17] the test system is U87 glioblastoma. Briefly: SRB antiproliferative assay. In kind it is cell-based. Particulars: Homo sapiens, 72 h, read-out: Cytotoxicity (as of %Control) IC50 value, U87 Gliobalstoma. The procedure: as §1
For data set [18], the system named is CACO2 colorectal cancer cell line. Nature of the data set: SRB antiproliferative assay. It counts as cell-based. The settings on record: Homo sapiens, Caco-2, 72 h; read-out: Cytotoxicity (as of %control) IC50 value, CACO2. The procedure: as §1
In data set [19] the test system is HCT116 colorectal cancer cell line. Briefly: SRB antiproliferative assay. In kind it is cell-based. Particulars: Homo sapiens, HCT-116, 72 h; read-out: Cytotoxicity (as of %control) IC50 value, HCT116. The procedure: as §1
Data set [20] has as its system A375 skin melanoma. Briefly: SRB antiproliferative assay. Particulars: Homo sapiens, A-375, 72 h; read-out: Cytotoxicity (as of %Control) IC50 value, A375 skin melanoma. In kind it is cell-based. The protocol: as §1
For data set [21], the system named is RAW 264.7 macrophages. Nature of the data set: SRB cytotoxicity on RAW 264.7 viability. It counts as cell-based. The settings on record: Mus musculus, RAW264.7, read-out: RAW 264.7 viability IC50 value. The protocol:
as §1
RAW 264.7 mouse macrophage cell line (ATCC® TIB-71) were cultured in high glucose DMEM supplemented with 10% (FBS), penicillin (100 U/mL), streptomycin (100 µg/mL), and L-glutamate (100 µg/mL) in a 37 °C humidified atmosphere with 95% air and 5% CO2. Confluent macrophages (2 × 10^5/well) were incubated with inflammation-priming lipopolysaccharide (LPS; Sigma, St. Luis, MO, USA) with either indomethacin as the reference agent[39] or treatment compounds at different concentrations (1.563-200 µM). Griess reagent was mixed with aliquots of cell culture media and incubated at R.T. for 10 min. Absorbance at 550 nm was determined using a microplate reader (Spectro Scan 80D UV-VIS spectrophotometer (Sedico Ltd., Nicosia, Cyprus). The nitrite concentration was determined by comparison with a sodium nitrite standard curve. SRB cytotoxicity protocol was performed for evaluation of the effect of the studied test compounds on RAW 264.7 viability.

Where [22] appears, read: 72 h incubations, 3.125-200µM range, mean ± SD n = 4.

Values after ≈ are worked out from the molar mass of the structure shown. Where two headings read alike, the source gives them in different places.

As for `N.N.[Cl][Pt][Cl]` [Cisplatin, reference compound], the IC50 in [1] (SRB, normal PDL fibroblasts, unit printed for cisplatin cell and footnote) was determined as 5.6 µM; in [2] (setting [22]), 71.9 ± 2.9 µM; in data set [3] (setting [22]), 8.92 ± 0.24 µM; in data set [4] (setting [22]), 3.77 ± 0.25 µM; in [5] (72 h incubations, 3.125-200 µM range, mean ± SD n = 4), 11.8 ± 1.4 µM; in data set [6] (setting [22]), 27.3 ± 0.9 µM. The IC50 in data set [7] (setting [22]) came out at 9.8 ± 0.1 µM; in data set [8] (setting [22]), 12.5 ± 0.2 µM; in data set [9] (setting [22]) it was 41.5 ± 0.4 µM; in data set [10] (setting [22]) it was 34.2 ± 0.5 µM; in [11] (setting [22]) it was 31.6 ± 0.44 µM.
`O=C(O)c1cn(C2CC2)c2cc(N3CCNCC3)c(F)cc2c1=O` [Ciprofloxacin, reference compound]: the values for the MIC in data set [12] and in data set [13] were 0.097 µg/mL (≈ 0.293 µM) and 0.0008 µg/mL (≈ 0.00241 µM), respectively.
On to `COc1ccccc1/C=N/NC(=S)N/N=C/c1ccccc1OC` [L1, 1,5-bis(2-methoxyanisaldehyde) thiocarbohydrazine], for which the IC50 was greater than 200 µM in data set [1] (Fibroblast); 44.8 ± 1.8 µM in data set [2] (Homo sapiens, A549, 72 h); 5.35 ± 0.25 µM in data set [3] (Homo sapiens, SW480, 72 h); 46.4 ± 1.11 µM in data set [4] (Homo sapiens, BT-549, 72 h); 29.2 ± 3.8 µM in [5] (Homo sapiens, MDA-MB-231, 72 h); 44.8 ± 3.8 µM in [6] (Homo sapiens, HeLa, 72 h). The IC50 in [7] (Homo sapiens, MDA-MB-453, 72 h) is 72.9 ± 3.4 µM; in data set [8] (Homo sapiens, 72 h) it was 145 ± 1.5 µM; in data set [9] (Homo sapiens, PANC-1, 72 h) it was 66.8 ± 0.2 µM; in data set [10] (Homo sapiens, T47D, 72 h), 21.8 ± 1.2 µM; in [11] (Homo sapiens, MCF7, 72 h) it was 52.4 ± 5.25 µM; in data set [15], 42.1 ± 5.7 µM. In addition, the IC50 was less than 3.12 µM in [16]; 29.5 ± 0.2 µM in data set [17]; 23.2 ± 0.6 µM in [18]; 36.1 ± 1.9 µM in data set [19]; 41.7 ± 0.7 µM in data set [20]; greater than 200 µM in data set [21]. Further, the figures for the MIC in data set [14], in data set [12] and in data set [13] were 31.3 µg/mL (≈ 91.4 µM), 15.6 µg/mL (≈ 45.6 µM) and 31.3 µg/mL (≈ 91.4 µM), respectively.
Turning to `OC(Cn1cncn1)(Cn1cncn1)c1ccc(F)cc1F` [Fluconazole, reference compound], the MIC in data set [14] amounted to 3.9 µg/mL (≈ 12.7 µM).
Regarding `COc1ccc2c(c1)c(CC(=O)O)c(C)n2C(=O)c1ccc(Cl)cc1` [Indomethacin, reference compound], the IC50 in [21] was greater than 200 µM.
